Test results as given in patent US12527777B2, “Sustained release pyridostigmine compositions” (priority 2018, dated 2026).

How the values were obtained:
[1] = in vivo; cited from earlier work
[2] = Effect of relative humidity on adsorption of water vapour (deliquescence); type: physicochemical

Q: Which biological half-life [1] does the source give for `CN(C)C(=O)Oc1ccc[n+](C)c1` [Pyridostigmine, (1-methylpyridin-1-ium-3-yl) N,N-dimethylcarbamate] here?
A: Its biological half-life is 2-3 hours.

Q: With `CN(C)C(=O)Oc1ccc[n+](C)c1` [pyridostigmine bromide] as the molecule, how does the “relative humidity (RH) at which deliquescence is exhibited” value [2] read?
A: Its value is 33%.
